Data published in US20240317809A1, “Engineered Antimicrobial Peptides and Usage Thereof” (University of Pittsburgh-Of the Commonwealth System of …, priority 2021, published 2024).
Values joined by “and” are separate entries in the source; they are usually repeats but may differ in a detail not shown here. Equal entries are not always repeated. Peptide text beside a SMILES is read from it.

Legend:
[1] = test system: S. aureus; experiment: MIC, CLSI protocol, planktonic ESKAPE pathogens; format: cell-based, Staphylococcus aureus; conditions: N=4
Description: (§1) Standard Clinical and Laboratory Standards Institute (CLSI) protocol was used to measure the minimum inhibitory concentration (MIC) against each organism. Biofilm model: Implant material was prepared from 0.6 mm diameter stainless steel Kirschner wire and plated at 0.5×10^6 CFU/ml. Mature biofilm developed over 48 hours, wires were washed, and then treated with 1 mg/mL WLBU-2 (SEQ ID: 10) in PBS (pH 7.4) for 5, 15, and 30 minutes. Quantitative culture (colony forming unit, CFU) analysis was then completed.
(§2) ESKAPE pathogens were selected from a large clinical library of MDR and non-MDR organisms (n>100 organism). […] At 15 minutes, organisms had greater than a 3 log reduction in biofilm mass (E. faecium: 3 log 10; S. aureus: 5 log 10; K. pneumoniae 6 log 10; A. baumannii 5 log 10; P. aeruginosa 8 log 10; E. cloacae 7 log 10; E. coli 5 log 10).

[2] = test system: P. aeruginosa; experiment: MIC, CLSI protocol, planktonic ESKAPE pathogens; format: cell-based, Pseudomonas aeruginosa; conditions: N=20
Description: as §1, §2

[3] = test system: E. coli; experiment: MIC, CLSI protocol, planktonic ESKAPE pathogens; format: cell-based; conditions: N=8
Description: as §1, §2

[4] = test system: E. cloacae; experiment: MIC, CLSI protocol, planktonic ESKAPE pathogens; format: cell-based; conditions: N=2
Description: as §1, §2

[5] = test system: K. pneumoniae; experiment: MIC, CLSI protocol, planktonic ESKAPE pathogens; format: cell-based, Klebsiella pneumoniae; conditions: N=8
Description: as §1, §2

[6] = test system: bacterial burden; experiment: Survival study with rabbit PJI model; format: in vivo; conditions: for survival rates of rabbits as a function of days post-infection: observed up to 14 days (Group 4: 28 days)
Description: In the following Examples 1-5, the administered WLBU-2 formulations were prepared as described in this paragraph. Exemplary pharmaceutical formulations comprising WLBU-2 were prepared at concentrations of 0.5 mg/mL and 1.0 mg/mL in vehicle (dPBS), by formulating under aseptic conditions. WLBU-2 was added while mixing to approximately 90% of volume with vehicle, and mixed until the solution was clear. The solution was adjusted to pH 7.4 using a 1% NaOH solution. dPBS was added quantity sufficient to final volume. The final pH of the solution was read and recorded.
This example illustrates the antibacterial activity an exemplary formulation of WLBU-2, beta lactam antibiotic, and in combination in reducing CFU in vivo with varying concentrations and time of exposure.
A bone tunnel in the tibial canal was created using a drill with a 1.2 mm or 1.6 mm tungsten carbide drill bit. The bone tunnel was then dried and treated to simulate acute human PJI following primary arthroplasty. A Kirschner wire implant was placed in the bone tunnel and the wound closed. Prior to closure of the superficial skin layer, 0.1 mL of 2×10^6 planktonic bacteria (CFU/rabbit) in saline was injected into the joint space. A closure was performed, and a biofilm was allowed to become established over a period of 2 days.
In each group, the joint space was reopened and treated with I&D at 2 days post-infection. Group 1 received neither cefazolin nor WLBU-2. Group 2 received cefazolin but not WLBU-2. Group 3 received WLBU-2 but not the cefazolin. Group 4 received both cefazolin and WLBU-2 treatment. Where applicable, cefazolin was delivered subcutaneously at 10 mg/kg BID for 5 days. Where applicable, WLBU-2 was delivered with 2 ml of WLBU-2 at 1 mg/ml with exposure of 15 minutes. […] When an animal was sick or needed to be euthanized, the implant and a part of the tibia was collected postmortem and CFU analysis was performed. All surviving animals (except for Group 4) were euthanized on day 14 and the implant and tibia were collected most mortem.

[7] = test system: A. baumannii; experiment: MIC, CLSI protocol, planktonic ESKAPE pathogens; format: cell-based, Acinetobacter baumannii; conditions: N=24
Description: as §1, §2

[8] = test system: E. coli; experiment: Human patient knee explant study (Example 5), ex vivo CFU analysis; format: cell-based; conditions: treated vs untreated explant of same patient, 1 mg/mL, 15 minutes
Description: (§3) Patients diagnosed with chronic PJI were prospectively enrolled (n=17). All patients met the diagnosis of PJI as defined by the 2018 International Consensus Meeting criteria. The implant was first washed with 50 ml Dulbecco's PBS (dPBS) and submerged ex vivo in an expected clinical exposure of 1 mg/mL WLBU-2 (SEQ ID: 10) in Dulbecco's PBS (dPBS) adjusted to pH 7.4 for 15 minutes. After treatment, the sample was washed with 50 mL of dPBS and sonicated in PBS containing 1% Tween 20 for 5 minutes. After sonication, 100 microliters of the implant sonication fluid was serially diluted, and plated for quantitative culture (CFU analysis). The remaining explanted implant from the same patient served as a control and was processed similarly but without exposure to WLBU-2 (SEQ ID: 10).

[9] = test system: S. hemolyticus; experiment: as above; format: cell-based; conditions: treated vs untreated explant of same patient, 1 mg/mL, 15 minutes
Description: as §3

[10] = test system: S. dysgalactiae; experiment: as above; format: cell-based; conditions: treated vs untreated explant of same patient, 1 mg/mL, 15 minutes
Description: as §3

[11] = test system: E. faecalis; experiment: as above; format: cell-based; conditions: treated vs untreated explant of same patient, 1 mg/mL, 15 minutes
Description: as §3

[12] = test system: S. caprae; experiment: as above; format: cell-based; conditions: treated vs untreated explant of same patient, 1 mg/mL, 15 minutes
Description: as §3

[13] = test system: Haemophilus parainfluenzae; experiment: as above; format: cell-based; conditions: treated vs untreated explant of same patient, 1 mg/mL, 15 minutes
Description: as §3

[14] = test system: S. aureus (MRSA); experiment: as above; format: cell-based; conditions: treated vs untreated explant of same patient, 1 mg/mL, 15 minutes
Description: as §3

[15] = test system: S. aureus (MSSA); experiment: as above; format: cell-based; conditions: treated vs untreated explant of same patient, 1 mg/mL, 15 minutes
Description: as §3

[16] = test system: gram-positive and gram-negative bacteria on infected prostheses; experiment: Human patient knee explant study (Example 5), ex vivo CFU analysis, all implants; format: cell-based; conditions: 1 mg/mL in dPBS pH 7.4, 15 minutes; vs untreated implant of same patient
Description: as §3

[17] = Local or systemic toxicity in animal models; format: in vivo
[18] = cefazolin 10 mg/kg sc BID 5 days and/or WLBU-2 2 ml at 1 mg/ml 15 minutes, vs untreated Group 1
[19] = cefazolin 10 mg/kg sc BID 5 days and/or WLBU-2 2 ml at 1 mg/ml 15 minutes, vs untreated Group 1, listed as cefazolin

CN[C@H](CC(C)C)C(=O)N[C@H]1C(=O)N[C@@H](CC(N)=O)C(=O)N[C@H]2C(=O)N[C@H]3C(=O)N[C@H](C(=O)N[C@H](C(=O)O)c4cc(O)cc(O)c4-c4cc3ccc4O)[C@H](O)c3ccc(c(Cl)c3)Oc3cc2cc(c3O[C@@H]2O[C@H](CO)[C@@H](O)[C@H](O)[C@H]2O[C@H]2C[C@](C)(N)[C@H](O)[C@H](C)O2)Oc2ccc(cc2Cl)[C@H]1O [VAN, vancomycin]
minimum inhibitory concentration (MIC) [1]: 1

colistin
minimum inhibitory concentration (MIC) [2]: .12-2^
minimum inhibitory concentration (MIC) [3]: .06-.25
minimum inhibitory concentration (MIC) [4]: .06-.25
minimum inhibitory concentration (MIC) [5]: .06-16

CC(=O)NC[C@H]1CN(c2ccc(N3CCOCC3)c(F)c2)C(=O)O1 [LZD, linezolid]
minimum inhibitory concentration (MIC) [1]: 4

C[C@H]1COc2c(N3CCN(C)CC3)c(F)cc3c(=O)c(C(=O)O)cn1c23 [LVX, levofloxacin]
minimum inhibitory concentration (MIC) [1]: .015-.03

Cc1nnc(SCC2=C(C(=O)O)N3C(=O)[C@@H](NC(=O)Cn4cnnn4)[C@H]3SC2)s1 [Cefazolin]
body weight as a function of days post infection ([6]; I&D 2 days post-infection, cefazolin 10 mg/kg sc BID 5 days and/or WLBU-2 2 ml at 1 mg/ml 15 minutes): No significance
bacterial burden of collected implants (CFU analysis), reduction [6, 18]: significantly lower bacterial burden
bacterial burden of collected tibia (bone CFU analysis), reduction [6, 18]: 2.6 log
total CFU (implant and bone), reduction in total bacterial burden [6, 18]: Significant reductions in total bacterial burden
bacterial burden of collected tibia (bone CFU analysis), reduction [6, 19]: significantly lower bacterial burden
total CFU (implant and bone), reduction in total bacterial burden [6, 19]: significantly lower bacterial burden
survival rates of rabbits as a function of days post-infection ([6]; vs untreated Group 1): improved survival in comparison to Group 1
survival rates of rabbits as a function of days post-infection ([6]; vs untreated Group 1, listed as cefazolin): second-best survival rates

CN(C)c1cc(NC(=O)CNC(C)(C)C)c(O)c2c1C[C@H]1C[C@H]3[C@H](N(C)C)C(O)=C(C(N)=O)C(=O)[C@@]3(O)C(O)=C1C2=O [TIG, tigecycline]
minimum inhibitory concentration (MIC) [7]: 1-16
minimum inhibitory concentration (MIC) [3]: .25-0.5
minimum inhibitory concentration (MIC) [4]: 0.5-2
minimum inhibitory concentration (MIC) [5]: 0.5-2

CC(C)[C@H](NC(=O)[C@H](Cc1c[nH]c2ccccc12)NC(=O)[C@H](CCCNC(=N)N)NC(=O)[C@H](CCCNC(=N)N)NC(=O)[C@@H](NC(=O)[C@@H](NC(=O)[C@H](CCCNC(=N)N)NC(=O)[C@@H](NC(=O)[C@@H](NC(=O)[C@H](CCCNC(=N)N)NC(=O)[C@H](CCCNC(=N)N)NC(=O)[C@H](Cc1c[nH]c2ccccc12)NC(=O)[C@@H](NC(=O)[C@H](CCCNC(=N)N)NC(=O)[C@H](CCCNC(=N)N)NC(=O)[C@@H](NC(=O)[C@H](CCCNC(=N)N)NC(=O)[C@H](CCCNC(=N)N)NC(=O)[C@@H](NC(=O)[C@H](Cc1c[nH]c2ccccc12)NC(=O)[C@H](CCCNC(=N)N)NC(=O)[C@@H](N)CCCNC(=N)N)C(C)C)C(C)C)C(C)C)C(C)C)C(C)C)C(C)C)C(C)C)C(=O)N[C@@H](CCCNC(=N)N)C(=O)N[C@@H](CCCNC(=N)N)C(=O)O [WLBU-2, RRWVRRVRRVWRRVVRVVRRWVRR] (H-RRWVRRVRRVWRRVVRVVRRWVRR-OH)
Log reduction [8]: 6.2 and 5.9
Log reduction [9]: 2.9
Log reduction [10]: 4.0
Log reduction [11]: 6.7
Log reduction [12]: 7.7
Log reduction [13]: 7.7
Log reduction [14]: 7.7
Log reduction [15]: 3.6
mean log reduction [16]: 6 log
range of log reduction [16]: 2-7.70 log
toxicity to local tissue ([17]; 1 mg/mL for 15 minutes, murine and rabbit PJI animal models): non-toxic to local tissue
local or systemic toxicity ([17]; therapeutic range of dosing in animal models): does not have significant local or systemic toxicity

C[C@@H](O)[C@H]1C(=O)N2C(C(=O)O)=C(SCCN=CN)C[C@H]12 [IPM, imipenem]
minimum inhibitory concentration (MIC) [4]: 0.25
minimum inhibitory concentration (MIC) [1]: .015-.03
